Data reported in patent publication US4542123A (Massachusetts Institute of Technology, priority 1982, dated 1985).

Assay: Plasma amino acid levels after glucose ingestion (Example I, Table 1)
Format: in vivo, human
Experimental: Six healthy, non-obese, fasting subjects each received, on different days 0, 6, 12.5, 25 or 50 g of glucose (Glucola) in a total volume of 100 ml.
Following a protocol approved by the Massachusetts Institute of Technology Committee on the Use of Humans as Experimental Subjects, 6 healthy volunteer outpatients, aged 25-33 years, participated in the study; 3 were males and 3 females. Mean weight was 60 kg for the women and 70 for the men; all subjects were within 10% of their ideal body weight as determined by Metropolitan Life Insurance Company tables. […] Subjects were asked to take meals rich in carbohydrate content (about 300 g/day) for 3 days before beginning the study. On 5 separate days, each subject fasted from 8 p.m. until 9 the next morning and then received a load of 0, 6, 12.5, 25 or 50 g of glucose (caffeine-free glucola) dissolved in water in a total volume of 100 ml; the order of doses was randomized. Venous blood samples were drawn from the antecubital vein through an indwelling catheter at 0, 60 and 120 min for all doses and additionally at 30 and 180 min for the 12.5, 25 and 50 g doses. Blood was collected in heparanized tubes; after centrifugation plasma was stored at -20° C. until analyzed. […] Glucose was analyzed spectrophotometrically after reaction with O-toluidine in hot acidic acid (Sigma Bulletin #635;15). Insulin was measured using a commercial radioimmunoassay kit by a double antibody method (Bio-RIA, Louisville, Ky.). Plasma tryptophan was measured fluorometrically on 20 μl plasma aliquots by the method of Denckla and Dewey, J. Lab. Clin. Med. 69: 160-169, 1967, as modified by Lehman, Scand. J. Clin. Lab. Invest. 28: 49-55, 1971. Branched-chain amino acids and aromatic amino acids were measured in 500 μl aliquots of plasma, deproteinized with sulfosalicylic acid, using a Beckman amino acid analyzer (Beckman Instruments, Palo Alto, Calif., Model 119C).
Data, given as means ±SE errors, were analyzed by two-way analysis of variance; factors compared were dose and time. The Scheffe test was employed to test the statistical significance of differences; p<0.05 was considered significant. Areas under the curves were evaluated by the method of trapezoid approximation. Student tests for paired data were used to evaluate the significance of changes in individual amino acids. Amino acid concentrations after treatments for each subject were also expressed as a percentage of that day's pretreatment levels; mean percent changes were then calculated for each treatment and time interval.
Sum of the LNAA: total concentration of leucine, isoleucine, valine,
the sum of the LNAA, measured 0, 60 and 120 min after 6 nonobese, fasting
subjects ingested 0, 6, 12.5, 25 or 50 g of glucose. All plasma amino
acids, except tryptophan, were measured on a Beckman amino acid analyzer.
Tryptophan was measured by the method of Denckla and Dewey. Data are
expressed as means ± S.E.M.

SMILES: O=C[C@H](O)[C@@H](O)[C@H](O)[C@H](O)CO [Glucose, glucose]
- Absolute leucine concentrations (6-50 g glucose): decreased significantly after 6-50 g
- LNAA concentrations, some subjects (6 g of glucose): transiently decreased LNAA concentrations
- All other amino acids (absolute concentrations) (12.5-50 g glucose): decreased significantly after 12.5-50 g
- Relationship between rise in plasma insulin and fall in LNAA (areas under the curve) (12.5-50 g glucose, subjects 2 and 4, not robust for other subjects): clear inverse linear relationship
- Decrease of plasma LNAA vs 0 and 6 g doses (25 and 50 g, 60 and 120 min, P<0.05): significantly greater than those following the 0 and 6 g doses
- Decrease of branched-chain amino acids (50 g glucose, 120 min): 35-41%
- Decrease of methionine (50 g glucose, 120 min): 31%
- Decrease of phenylalanine and tyrosine (50 g glucose, 120 min): 29-31%
- Decrease of tryptophan (50 g glucose, 120 min): 23%
- Percent reduction in plasma LNAA, 50-g vs 25-g dose (50 g vs 25 g glucose): not consistently associated with a greater percent reduction in plasma LNAA
- Absolute concentrations of amino acids, 50-g vs 25-g dose (50 g vs 25 g glucose, 120 min, zero-time LNAA also lower): lower absolute concentrations of the amino acids than the 25-g dose after 120 min
- Plasma LNAA concentrations (percent of pre-treatment) (60 and 120 min): dose-related depression of plasma LNAA concentrations
- Correlation (r) of glucose dose with mean percent decrease in LNAA (120 min, P<0.01): 0.80
- Decrease of branched-chain amino acids (after 50 g of glucose): 35-41%
- Fall of plasma tyrosine concentrations (after 50 g of glucose): 23%
- Ratio of plasma tyrosine to other plasma LNAA (after 50 g of glucose): increased significantly
- Absolute isoleucine concentrations (after all treatments (0-50 g glucose)): decreased significantly with time after all treatments
- Tyrosine/LNAA ratio (any glucose dose): did not change significantly
- Plasma Iso level (glucose 6 g, 0 min): 60 ± 7 nmol/mL
- Plasma LNAA (sum) (glucose 6 g, 0 min): 522 ± 47 nmol/mL
- Plasma Leu level (glucose 6 g, 0 min): 113 ± 11 nmol/mL
- Plasma Met level (glucose 6 g, 0 min): 24 ± 4 nmol/mL
- Plasma Phe level (glucose 6 g, 0 min): 50 ± 3 nmol/mL
- Plasma Trp level (glucose 6 g, 0 min): 46 ± 4 nmol/mL
- Plasma Tyr level (glucose 6 g, 0 min): 57 ± 8 nmol/mL
- Plasma Val level (glucose 6 g, 0 min): 220 ± 19 nmol/mL
- Trp/LNAA (glucose 6 g, 0 min): .088
- Plasma Iso level (glucose 6 g, 60 min): 51 ± 4 nmol/mL
- Plasma Leu level (glucose 6 g, 60 min): 100 ± 12 nmol/mL
- Plasma Met level (glucose 6 g, 60 min): 21 ± 3 nmol/mL
- Plasma Phe level (glucose 6 g, 60 min): 46 ± 2 nmol/mL
- Plasma Trp level (glucose 6 g, 60 min): 43 ± 4 nmol/mL
- Plasma Tyr level (glucose 6 g, 60 min): 51 ± 7 nmol/mL
- Plasma Val level (glucose 6 g, 60 min): 201 ± 15 nmol/mL
- Trp/LNAA (glucose 6 g, 60 min): .092
- Plasma Iso level (glucose 6 g, 120 min): 51 ± 5 nmol/mL
- Plasma LNAA (sum) (glucose 6 g, 120 min): 471 ± 37 nmol/mL
- Plasma Leu level (glucose 6 g, 120 min): 101 ± 9 nmol/mL
- Plasma Met level (glucose 6 g, 120 min): 22 ± 3 nmol/mL
- Plasma Phe level (glucose 6 g, 120 min): 47 ± 3 nmol/mL
- Plasma Trp level (glucose 6 g, 120 min): 41 ± 4 nmol/mL
- Plasma Tyr level (glucose 6 g, 120 min): 50 ± 6 nmol/mL
- Plasma Val level (glucose 6 g, 120 min): 200 ± 16 nmol/mL
- Trp/LNAA (glucose 6 g, 120 min): .086
- Plasma Iso level (glucose 12.5 g, 0 min): 65 ± 5 nmol/mL
- Plasma LNAA (sum) (glucose 12.5 g, 0 min): 574 ± 15 nmol/mL
- Plasma Leu level (glucose 12.5 g, 0 min): 117 ± 10 nmol/mL
- Plasma Met level (glucose 12.5 g, 0 min): 27 ± 2 nmol/mL
- Plasma Phe level (glucose 12.5 g, 0 min): 54 ± 4 nmol/mL
- Plasma Trp level (glucose 12.5 g, 0 min): 45 ± 2 nmol/mL
- Plasma Tyr level (glucose 12.5 g, 0 min): 58 ± 4 nmol/mL
- Plasma Val level (glucose 12.5 g, 0 min): 255 ± 47 nmol/mL
- Trp/LNAA (glucose 12.5 g, 0 min): .079
- Plasma Iso level (glucose 12.5 g, 60 min): 53 ± 4 nmol/mL
- Plasma LNAA (sum) (glucose 12.5 g, 60 min): 501 ± 66 nmol/mL
- Plasma Leu level (glucose 12.5 g, 60 min): 96 ± 10 nmol/mL
- Plasma Met level (glucose 12.5 g, 60 min): 25 ± 1 nmol/mL
- Plasma Phe level (glucose 12.5 g, 60 min): 50 ± 3 nmol/mL
- Plasma Trp level (glucose 12.5 g, 60 min): 40 ± 1 nmol/mL
- Plasma Tyr level (glucose 12.5 g, 60 min): 52 ± 3 nmol/mL
- Plasma Val level (glucose 12.5 g, 60 min): 226 ± 48 nmol/mL
- Trp/LNAA (glucose 12.5 g, 60 min): .080
- Plasma Iso level (glucose 12.5 g, 120 min): 48 ± 3 nmol/mL
- Plasma LNAA (sum) (glucose 12.5 g, 120 min): 582 ± 49 nmol/mL
- Plasma Leu level (glucose 12.5 g, 120 min): 95 ± 9 nmol/mL
- Plasma Met level (glucose 12.5 g, 120 min): 23 ± 1 nmol/mL
